Test results as given in ChEMBL document CHEMBL4152347 (J Med Chem, 2018).

Experiments:
[1] = Protein binding in rat serum at 53 nM after 1 hr by ultracentrifugation assay; assay type: ADME, cell-free; conditions: read-out: PB (converted)
[2] = Protein binding in dog serum at 53 nM after 1 hr by ultracentrifugation assay; assay type: ADME, cell-free, Canis lupus familiaris; conditions: read-out: PB (converted)
[3] = Protein binding in cynomolgus monkey serum at 53 nM after 1 hr by ultracentrifugation assay; assay type: ADME, cell-free, Macaca fascicularis; conditions: read-out: PB (converted)
[4] = Protein binding in human serum at 53 nM after 1 hr by ultracentrifugation assay; assay type: ADME, cell-free; conditions: read-out: PB (converted)
[5] = Cmax in CD1 mouse at 5 mg/kg, po administered via gavage; assay type: ADME, organism-based; parameters: dose 5 mg/kg, route oral; conditions: in vivo
[6] = Tmax in Sprague-Dawley rat at 5 mg/kg, po; assay type: ADME, organism-based; conditions: in vivo
[7] = AUC (0 to infinity) in Sprague-Dawley rat at 1 mg/kg, iv; assay type: ADME, organism-based; parameters: dose 1 mg/kg, time infinity, route intravenous; conditions: in vivo
[8] = AUC (0 to infinity) in Sprague-Dawley rat at 5 mg/kg, po; assay type: ADME, organism-based; parameters: dose 5 mg/kg, time infinity, route oral; conditions: in vivo
[9] = Volume of distribution at steady state in Sprague-Dawley rat at 1 mg/kg, iv; assay type: ADME, organism-based; conditions: in vivo, read-out: Vdss
[10] = Tmax in Sprague-Dawley rat at 5 mg/kg, id; assay type: ADME, organism-based; conditions: in vivo
[11] = Cmax in Sprague-Dawley rat at 5 mg/kg, po treated with 10 mg/kg elacridar immediately after compound dosing; assay type: ADME, organism-based; parameters: dose 5 mg/kg, route oral; conditions: in vivo, with elacridar 10 mg/kg
[12] = Oral bioavailability in Sprague-Dawley rat at 5 mg/kg treated with 10 mg/kg elacridar immediately after compound dosing; assay type: ADME, organism-based; conditions: in vivo, with elacridar 10 mg/kg
Canis familiaris [13] = experiment: AUC (0 to infinity) in beagle dog at 1 mg/kg, iv; assay type: ADME, organism-based, Canis lupus familiaris; parameters: dose 1 mg/kg, route intravenous, time infinity; conditions: in vivo
[14] = AUC (0 to infinity) in beagle dog at 5 mg/kg, po administered via gavage as solution; assay type: ADME, organism-based, Canis lupus familiaris; parameters: dose 5 mg/kg, route oral, time infinity; conditions: in vivo
[15] = Oral bioavailability in beagle dog at 5 mg/kg administered as solution; assay type: ADME, organism-based, Canis lupus familiaris; conditions: in vivo
Canis familiaris [16] = experiment: Oral bioavailability in beagle dog at 5 mg/kg administered via gavage as microsuspension along with high fat meal; assay type: ADME, organism-based, Canis lupus familiaris; conditions: in vivo
[17] = Tmax in beagle dog at 5 mg/kg, po administered via gavage as microsuspension pre-treated with 40 mg famotidine in capsule form 1 hr before compound dosing; assay type: ADME, organism-based, Canis lupus familiaris; conditions: in vivo
[18] = Oral bioavailability in beagle dog at 5 mg/kg administered via gavage as microsuspension pre-treated with 40 mg famotidine in capsule form 1 hr before compound dosing; assay type: ADME, organism-based, Canis lupus familiaris; conditions: in vivo
[19] = Cmax in cynomolgus monkey at 5 mg/kg, po administered via gavage; assay type: ADME, organism-based, Macaca fascicularis; parameters: dose 5 mg/kg, route oral; conditions: in vivo
[20] = Volume of distribution at steady state in cynomolgus monkey at 1 mg/kg, iv; assay type: ADME, organism-based, Macaca fascicularis; conditions: in vivo, read-out: Vdss
[21] = AUC (0 to infinity) in MDR1 a/b knockout mouse at 5 mg/kg, po administered via gavage; assay type: ADME, organism-based; parameters: dose 5 mg/kg, time infinity, route oral; conditions: in vivo
[22] = Half life in cynomolgus monkey liver microsomes at 0.5 uM after 1 hr in presence of NADPH by LC-MS/MS analysis; assay type: ADME, Macaca fascicularis, microsome
[23] = Half life in mouse hepatocytes at 0.5 uM after 1 hr in presence of NADPH by LC-MS/MS analysis; assay type: ADME, cell-based, Hepatocyte
[24] = Half life in human hepatocytes at 0.5 uM after 1 hr in presence of NADPH by LC-MS/MS analysis; assay type: ADME, cell-based, Hepatocyte
[25] = Stability of the compound in human liver microsomes in presence of […]; assay type: ADME, microsome
Salmonella typhimurium = experiment: Mutagenicity in Salmonella typhimurium TA100 in presence of Aroclor 1254-induced rat liver S9 fraction at up to 1600 ug/plate; assay type: toxicity, organism-based; conditions: salmonella enterica subsp. enterica serovar typhimurium
Gag-Pol polyprotein = Gag-Pol polyprotein (Human immunodeficiency virus type 1 group M subtype B (isolate HXB2)(HIV-1), UniProt P04585, V362I)
[26] = molecular target: Human immunodeficiency virus type 1 Gag protein (Human immunodeficiency virus 1) (UniProt Q77YG1)
Description: Binding affinity to wild type HIV1 gag polyprotein containing viral like particle assessed as dissociation half life

[27] = test system: Gag-Pol polyprotein (Human immunodeficiency virus type 1 group M subtype B (isolate HXB2)(HIV-1)), P04585 [V370A]; conditions: Human immunodeficiency virus 1
[28] = molecular target: Gag-Pol polyprotein (Human immunodeficiency virus type 1 group M subtype B (isolate HXB2)(HIV-1)) (UniProt P04585); conditions: Human immunodeficiency virus 1
Description: Binding affinity to HIV1 gag polyprotein delta V370 mutant containing viral like particle assessed as dissociation half life

in vivo = conditions: Sprague-Dawley, rat, po, 5 mg/kg
physchem = conditions: aqueous
Description: Aqueous solubility of the compound

in vitro = conditions: rat, liver microsomes
Description: Half life in rat liver microsomes at 0.5 uM after 1 hr in presence of NADPH by LC-MS/MS analysis

[29] = test system: Human immunodeficiency virus 1; experiment: microbe, parasite or virus in culture
Description: Antiviral activity against HIV1 expressing gag A364V mutant

In the case of `C=C(C)[C@@H]1CC[C@]2(NCCN3CCS(=O)(=O)CC3)CC[C@]3(C)[C@H](CC[C@@H]4[C@@]5(C)CC=C(c6ccc(C(=O)O)cc6)C(C)(C)[C@@H]5CC[C@]43C)[C@@H]12` [BMS-955176], the fraction unbound at 1 h, 0.053 µM [1] is reported as 0.141, the fraction unbound at 1 h, 0.053 µM [2] is reported as 0.154 and the fraction unbound at 1 h, 0.053 µM [3] is reported as 0.216. The fraction unbound at 1 h, 0.053 µM [4] was 0.139, the Cmax [5] was 2790 nM and the Tmax [6] was 6 h. The AUC(0-inf) [7] was 11.1 µM·h, the AUC(0-inf) [8] was 14.2 µM·h and the Vd [9] was 1.1 L/kg. It also gave a Tmax [10] of 1 h, a Cmax [11] of 1800 nM and a bioavailability [12] of 63%. The AUC (Canis familiaris [13]) was 31.7 µM·h, the AUC(0-inf) [14] was 29.4 µM·h and the bioavailability [15] was 9%. For the same molecule, the F (Canis familiaris [16]) was 67%, the Tmax [17] was 13.5 h and the bioavailability [18] was 26%. For the same molecule, the Cmax [19] was 62 nM, the Vd [20] was 0.43 L/kg and the AUC(0-inf) [21] was 65.5 µM·h. The half-life at 0.5 µM [22] was 0.183 h, the half-life at 0.5 µM [23] was greater than 2 h and the half-life at 0.5 µM [24] was greater than 2 h. The Stability [25] was “Stable”, the Activity (Salmonella typhimurium) was “Non-Toxic” and the Kd (Gag-Pol polyprotein) was 4.3 nM. It also gave a T1/2 [26] of 0.683 h, a T1/2 [27] of 0.6 h and a T1/2 [28] of 0.767 h. The AUC(0-t) at 6 h (in vivo) was 4.13 µM·h, the solubility (physchem) was less than 1 µg/mL and the half-life at 1 h, 0.5 µM (in vitro) was greater than 2 h. The EC50 [29] was 1480 nM.
